Measured values: US7671050B2, “Triazolophthalazines” (NYCOMED GmbH, priority 2005, dated 2010)

Tests used:
[1] = tested on: HUVEC monolayers; test: Inhibition of thrombin-stimulated macromolecule (HRP) permeability of HUVEC monolayers; type: cell-based, human; conditions: Homo sapiens, 1 h; HUVEC on Transwells, 1 μM RP73401, 10 μM Motapizone, 1 mM SNP or 100 nM ANP, 1 U/ml thrombin, HRP passage after 60 min; read-out: Inhibition of SNP- or ANP-induced permeability, -log IC50 (converted)
Protocol: The procedure to measure macromolecule permeability of endothelial cell monolayers followed the method described by Langeler & van Hinsbergh (1988) with modifications. Human umbilical vein endothelial cells were isolated from umbilical cords according to standard procedures (Jaffe et al. 1973) and cultured in endothelial cell basal medium (EBM) supplemented with 2% FCS, 0.5 ng/ml VEGF, 10 ng/ml bFGF, 5 ng/ml EGF, 20 ng/ml Long R3 IGF-1, 0.2 μg/ml hydrocortisone, 1 μg/ml ascorbic acid, 22.5 μg/ml heparin, 50 μg/ml gentamicin, 50 ng/ml amphotericin B (EGM2 purchased from Promocell GmbH, Heidelberg, Germany). At confluency, cells were trypsinized and replated at 73000 cells per well on 3 μm polycarbonate filter Transwell inserts (Costar GmbH, Bodenheim, Germany) precoated with 10 μg cm^2−1 Fibronectin (Sigma, Taufkirchen, Germany). HUVECs were cultured in EGM2 (100 μl in the upper wells and 600 μl in the lower wells) over four days prior the experiments and medium was changed every other day. At the day of the experiment culture medium was replaced by M199 with 1% human serum albumin. Endothelial cells were preincubated with cyclic nucleotide modifiers (the selective PDE3 inhibitor motapizone, the selective PDE4 inhibitor RP73401, the cGMP generators ANP or SNP and PDE2 inhibitors) for 15 min. HUVECs were then stimulated with Thrombin (1 U ml^−1) (Sigma, Taufkichen, Germany) and horsh radish peroxidase (5 μg/ml) (Sigma, Taufkirchen, Germany) as the macromolecule marker protein was added to the upper wells. Following 1 h incubation time Transwells were removed and the activity of horsh radish peroxidase that penetrated the endothelial cell monolayer was measured in the lower wells with the 3,3′,5,5′-tetramethylbenzidine liquid substrate system from Sigma (Taufkirchen, Germany).
In parallel, compounds according to the invention can inhibit Thrombin-induced permeability of HUVEC monolayers for horsh radish peroxidase (HRP) as a macromolecule marker. […] The concentration-dependent inhibition of HRP permeability at different concentrations was assessed from the percent inhibition in the presence and absence of the PDE2 inhibitors and in the presence of 1 μM RP73401, 10 μM Motapizone and 100 nM ANP.
HUVEC cells on 3 μm polycarbonate filters (Transwells) were preincubated with 1 μM RP73401 (to block PDE4) and 10 μM Motapizone (to block PDE3), 1 mM SNP or 100 nM ANP and test sample over 15 min and then stimulated with 1 U/ml thrombin. HRP passage into the lower wells was assessed after 60 min.

SMILES: CCOc1ccc(Nc2nn3c(-c4ccc(OC)cc4)nnc3c3ccccc23)cc1OCC [Example 29, (3,4-Diethoxyphenyl)-[3-(4-methoxyphenyl)-[1,2,4]triazolo[3,4-a]phthalazin-6-yl]-amine]
- IC50 [1]: 7.94 to 316 nM
- melting point: 242.5 °C

SMILES: COc1ccc(-c2nnc3c4ccccc4c(Nc4ccc(OC(F)F)cc4)nn23)cc1 [Example 30, [4-(1,1-Difluoromethoxy)-phenyl]-[3-(4-methoxyphenyl)-[1,2,4]triazolo[3,4-a]phthalazin-6-yl]-amine]
- IC50 [1]: 7.94 to 316 nM
- melting point: 294 °C
